Values after ≈ are worked out from the molar mass of the structure shown. Values joined by “and” are separate entries in the source; they are usually repeats but may differ in a detail not shown here. Equal entries are not always repeated. Where two headings read alike, the source gives them in different places. Numbered stars: 1 amine (or outer) side, 2 acyl side, 3 side chain; on linkers, the order of the positions; unused ones are H or OH. Bridge positions count the residues as written; N and C are the ends. Square brackets hold non-standard residues; d marks the D form. Ends that are not written are not given here. Peptide text beside a SMILES is read from it. * marks the point of attachment. ξ: configuration not given here. X2 = CCCC1CC(C(=O)[*:2])N([*:1])C1; Butanoyl(2-oxo) = CCC(=O)C(=O)*; NMeAhp(2) = CCCCC[CH](NC)C(=O)O; ξPro(4ξ-Me) = CC1CNC(C(=O)O)C1; NMeT = CN[CH](C(=O)O)[CH](C)O; NMeL = CN[CH](CC(C)C)C(=O)O; hLeu = CC(C)CC[CH](N)C(=O)O; NMeV = CN[CH](C(=O)O)C(C)C
T1: M. smegmatis DnaN (DNA polymerase III sliding clamp) (M. smegmatis mc^2155, UniProt A0QND6 1-397, labeled using Monolith Series Protein Labeling Kit BLUE-NHS)
T1 construct: also called msDnaN; DnaN from M. smegmatis mc^2155
T1 sequence (looked up): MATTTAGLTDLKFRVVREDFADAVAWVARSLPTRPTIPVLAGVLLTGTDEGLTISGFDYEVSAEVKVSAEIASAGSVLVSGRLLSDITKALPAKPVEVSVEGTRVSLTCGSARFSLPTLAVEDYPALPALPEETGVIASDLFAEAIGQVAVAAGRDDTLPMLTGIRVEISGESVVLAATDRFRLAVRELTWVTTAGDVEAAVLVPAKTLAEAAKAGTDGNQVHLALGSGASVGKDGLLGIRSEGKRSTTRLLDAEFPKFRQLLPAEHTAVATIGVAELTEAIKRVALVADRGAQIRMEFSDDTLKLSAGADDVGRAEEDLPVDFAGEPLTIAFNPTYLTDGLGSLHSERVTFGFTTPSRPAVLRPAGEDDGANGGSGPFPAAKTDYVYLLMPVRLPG


Legend:
[1] = test system: M. tuberculosis (Mtb) strain H37Rv; assay: microbe, parasite or virus in culture; assay type: cell-based, Mycobacterium tuberculosis; conditions: Mycobacterium tuberculosis, H37RV
[2] = test system: S. aureus Newman; assay: microbe, parasite or virus in culture; assay type: cell-based; conditions: Staphylococcus aureus, read-out: MIC S. aureus Newman
[3] = molecular target: M. smegmatis DnaN (msDnaN) (Mycolicibacterium smegmatis, UniProt A0QND6); assay: biochemical; assay type: binding; conditions: for Response (Average): MST source data, runs #1-#3, listed as MP B
[4] = test system: M. marinum (Mm) strain M (ATCC BAA-535); assay: microbe, parasite or virus in culture; assay type: cell-based; conditions: Mycobacterium marinum, ATCCBAA535, read-out: MIC M. marinum strain M
[5] = test system: B. subtilis DSM 10; assay: microbe, parasite or virus in culture; assay type: cell-based; conditions: Bacillus subtilis, DSM10, read-out: MIC B. subtilis DSM 10
[6] = test system: C. freundii DSM 30039; assay: microbe, parasite or virus in culture; assay type: cell-based; conditions: Citrobacter freundii, DSM30039, read-out: MIC C. freundii DSM 30039
[7] = test system: M. smegmatis mc^2155 GM^R; assay: microbe, parasite or virus in culture; assay type: cell-based; conditions: Mycolicibacterium smegmatis, MC^2155, read-out: MIC M. smegmatis mc^2155 GM^R
[8] = test system: CHO-K1 cells; assay: cells; assay type: cell-based, Chinese hamster (Cricetulus griseus); conditions: Cricetulus griseus, CHO-K1, 120 h, read-out: IC50 CHO-K1
[9] = test system: M. tuberculosis (Mtb) strain H37Ra; assay: microbe, parasite or virus in culture; assay type: cell-based; conditions: Mycobacterium tuberculosis, read-out: MIC Mtb H37Ra
[10] = test system: A. baumannii DSM 30008; assay: microbe, parasite or virus in culture; assay type: cell-based; conditions: Acinetobacter baumannii, DSM30008, read-out: MIC A. baumannii DSM 30008
[11] = test system: M. smegmatis (Msmeg) strain mc^2155; assay: microbe, parasite or virus in culture; assay type: cell-based; conditions: Mycolicibacterium smegmatis, MC^2155, read-out: MIC M. smegmatis mc^2155
[12] = test system: E. coli BW25113; assay: microbe, parasite or virus in culture; assay type: cell-based; conditions: Escherichia coli, BW25113, read-out: MIC E. coli BW25113
[13] = molecular target: T1, M. smegmatis DnaN (DNA polymerase III …); assay: MST; msDnaN labeled (BLUE-NHS) at 50 nM; compounds titrated in 16 serial dilution steps, triplicates; 20 mM Tris, 150 mM NaCl, 0.05% Tween-20; Monolith NT-115; conditions: both partners purified

Row | Molecule | MIC ([1]; read-out: MIC Mtb H37Rv) [µg/mL] | MIC [2] [µg/mL] | Kd [3] [nM] | MIC [4] [µg/mL] | MIC [5] [µg/mL] | MIC [6] [µg/mL] | MIC [7] [µg/mL] | IC50 [8] [µg/mL] | MIC [9] [µg/mL] | MIC [10] [µg/mL] | MIC [11] [µg/mL] | MIC [12] [µg/mL] | further results
1 | CCC(=O)C(=O)N(C)C(C(=O)N1CC(C)CC1C(=O)N(C)C1C(=O)NC(CC(C)C)C(=O)N2CC(C)CC2C(=O)NC(CCC(C)C)C(=O)N(C)C(C(C)C)C(=O)N2CCCC2C(=O)N(C)C(CC(C)C)C(=O)NCC(=O)OC1C)C(C)C (centres unmarked) [Mycoplanecin B] | 0.43 (≈ 0.368 µM) | > 64 | 24.4 ± 11.9 | 2 (≈ 1.71 µM) | > 64 | > 64 | 8 (≈ 6.84 µM) | > 37 | 0.1 (≈ 0.0855 µM) | > 64 | 0.5 (≈ 0.428 µM) | > 64 | Response (Average) ([3]; Dose 1.22E-08 (unit not given)): 897.348 and 900.943 and 911.516; Response (Average) ([3]; Dose 1.25E-05 (unit not given)): 906.572 and 909.169 and 909.706; Response (Average) ([3]; Dose 1.53E-09 (unit not given)): 896.843 and 900.134 and 899.613; Response (Average) ([3]; Dose 1.56E-06 (unit not given)): 907.358 and 910.005 and 911.362; Response (Average) ([3]; Dose 1.95E-07 (unit not given)): 905.084 and 913.604 and 911.242; Response (Average) ([3]; Dose 2.44E-08 (unit not given)): 897.582 and 904.128 and 903.123; Response (Average) ([3]; Dose 2.50E-05 (unit not given)): 906.786 and 911.734 and 910.009; Response (Average) ([3]; Dose 3.05E-09 (unit not given)): 897.958 and 898.601 and 900.671; Response (Average) ([3]; Dose 3.13E-06 (unit not given)): 907.585 and 910.886 and 909.908; Response (Average) ([3]; Dose 3.91E-07 (unit not given)): 908.074 and 910.248 and 909.115; Response (Average) ([3]; Dose 4.88E-08 (unit not given)): 897.616 and 904.939 and 909.25; Response (Average) ([3]; Dose 5.00E-05 (unit not given)): 906.528 and 909.788 and 910.069; Response (Average) ([3]; Dose 6.10E-09 (unit not given)): 894.937 and 899.128 and 901.665; Response (Average) ([3]; Dose 6.25E-06 (unit not given)): 905.496 and 910.338 and 909.682; Response (Average) ([3]; Dose 7.81E-07 (unit not given)): 907.246 and 909.231 and 910.996; Response (Average) ([3]; Dose 9.77E-08 (unit not given)): 902.534 and 911.539 and 911.215
2 | CCCC1CC(C(=O)N(C)C2C(=O)NC(CC(C)C)C(=O)N3CC(C)CC3C(=O)NC(CCC(C)C)C(=O)N(C)C(C(C)C)C(=O)N3CCCC3C(=O)N(C)C(CC(C)C)C(=O)NCC(=O)OC2C)N(C(=O)C(C(C)C)N(C)C(=O)C(=O)CC)C1 (centres unmarked) [Mycoplanecin D] ({Butanoyl(2-oxo)}-[NMeV][X2][NMeT]L[ξPro(4ξ-Me)][hLeu][NMeV]P[NMeL]G; ester 3-C; configuration not given here) | 0.17 (≈ 0.142 µM) | > 64 | 134 ± 69.3 | 1 (≈ 0.835 µM) | > 64 | > 64 | 8 (≈ 6.68 µM) | > 37 | 0.05 (≈ 0.0418 µM) | > 64 | 0.25 (≈ 0.209 µM) | > 64 | –
3 | CCCCCC1C(=O)NCC(=O)OC(C)C(N(C)C(=O)C2CC(CCC)CN2C(=O)C(C(C)C)N(C)C(=O)C(=O)CC)C(=O)NC(CC(C)C)C(=O)N2CC(C)CC2C(=O)NC(CCC(C)C)C(=O)N(C)C(C(C)C)C(=O)N2CCCC2C(=O)N1C (centres unmarked) [Mycoplanecin E] ({Butanoyl(2-oxo)}-[NMeV][X2][NMeT]L[ξPro(4ξ-Me)][hLeu][NMeV]P[NMeAhp(2)]G; ester 3-C; configuration not given here) | 0.083 (≈ 0.0685 µM) | > 64 | 64.4 ± 33.2 | 0.5 (≈ 0.413 µM) | > 64 | > 64 | – | > 37 | 0.03 (≈ 0.0248 µM) | > 64 | 0.125 (≈ 0.103 µM) | > 64 | MIC ([1]; read-out: minimum inhibition concentration against Mycobacterium tuberculosis): 0.083 µg/mL (≈ 0.0685 µM)
4 | VPTLPLVPLG (also: macrocycle, 4-methylproline twice, positions not placed) [griselimycin] | – | – | – | – | – | – | – | – | – | – | – | – | Kd [13]: 6.5 nM

From publication PMC10817943 (Nature Communications, 2024)
